This is an account of results in PubChem BioAssay AID1347040 (Sanford-Burnham Center for Chemical Genomics, 2019).

Activity calls are given as the source filed them.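 Rule for the calls: active = IC50 at or below 20 µM (some results past the limit were not filed as active); inactive = the rest.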

The target of the experiment is Fatty acid synthase (Homo sapiens) (UniProt P49327). The experiment can be described thus: FAS thioesterase domain inhibitors, dose response, biochemical, fluorescence intensity, OMFH substrate (AID 1347040). As to conditions: recombinant FAS-TE, OMFH fluorogenic substrate.
Sequence of Fatty acid synthase (Homo sapiens) (P49327 whole entry, looked up, the tested form may be a part): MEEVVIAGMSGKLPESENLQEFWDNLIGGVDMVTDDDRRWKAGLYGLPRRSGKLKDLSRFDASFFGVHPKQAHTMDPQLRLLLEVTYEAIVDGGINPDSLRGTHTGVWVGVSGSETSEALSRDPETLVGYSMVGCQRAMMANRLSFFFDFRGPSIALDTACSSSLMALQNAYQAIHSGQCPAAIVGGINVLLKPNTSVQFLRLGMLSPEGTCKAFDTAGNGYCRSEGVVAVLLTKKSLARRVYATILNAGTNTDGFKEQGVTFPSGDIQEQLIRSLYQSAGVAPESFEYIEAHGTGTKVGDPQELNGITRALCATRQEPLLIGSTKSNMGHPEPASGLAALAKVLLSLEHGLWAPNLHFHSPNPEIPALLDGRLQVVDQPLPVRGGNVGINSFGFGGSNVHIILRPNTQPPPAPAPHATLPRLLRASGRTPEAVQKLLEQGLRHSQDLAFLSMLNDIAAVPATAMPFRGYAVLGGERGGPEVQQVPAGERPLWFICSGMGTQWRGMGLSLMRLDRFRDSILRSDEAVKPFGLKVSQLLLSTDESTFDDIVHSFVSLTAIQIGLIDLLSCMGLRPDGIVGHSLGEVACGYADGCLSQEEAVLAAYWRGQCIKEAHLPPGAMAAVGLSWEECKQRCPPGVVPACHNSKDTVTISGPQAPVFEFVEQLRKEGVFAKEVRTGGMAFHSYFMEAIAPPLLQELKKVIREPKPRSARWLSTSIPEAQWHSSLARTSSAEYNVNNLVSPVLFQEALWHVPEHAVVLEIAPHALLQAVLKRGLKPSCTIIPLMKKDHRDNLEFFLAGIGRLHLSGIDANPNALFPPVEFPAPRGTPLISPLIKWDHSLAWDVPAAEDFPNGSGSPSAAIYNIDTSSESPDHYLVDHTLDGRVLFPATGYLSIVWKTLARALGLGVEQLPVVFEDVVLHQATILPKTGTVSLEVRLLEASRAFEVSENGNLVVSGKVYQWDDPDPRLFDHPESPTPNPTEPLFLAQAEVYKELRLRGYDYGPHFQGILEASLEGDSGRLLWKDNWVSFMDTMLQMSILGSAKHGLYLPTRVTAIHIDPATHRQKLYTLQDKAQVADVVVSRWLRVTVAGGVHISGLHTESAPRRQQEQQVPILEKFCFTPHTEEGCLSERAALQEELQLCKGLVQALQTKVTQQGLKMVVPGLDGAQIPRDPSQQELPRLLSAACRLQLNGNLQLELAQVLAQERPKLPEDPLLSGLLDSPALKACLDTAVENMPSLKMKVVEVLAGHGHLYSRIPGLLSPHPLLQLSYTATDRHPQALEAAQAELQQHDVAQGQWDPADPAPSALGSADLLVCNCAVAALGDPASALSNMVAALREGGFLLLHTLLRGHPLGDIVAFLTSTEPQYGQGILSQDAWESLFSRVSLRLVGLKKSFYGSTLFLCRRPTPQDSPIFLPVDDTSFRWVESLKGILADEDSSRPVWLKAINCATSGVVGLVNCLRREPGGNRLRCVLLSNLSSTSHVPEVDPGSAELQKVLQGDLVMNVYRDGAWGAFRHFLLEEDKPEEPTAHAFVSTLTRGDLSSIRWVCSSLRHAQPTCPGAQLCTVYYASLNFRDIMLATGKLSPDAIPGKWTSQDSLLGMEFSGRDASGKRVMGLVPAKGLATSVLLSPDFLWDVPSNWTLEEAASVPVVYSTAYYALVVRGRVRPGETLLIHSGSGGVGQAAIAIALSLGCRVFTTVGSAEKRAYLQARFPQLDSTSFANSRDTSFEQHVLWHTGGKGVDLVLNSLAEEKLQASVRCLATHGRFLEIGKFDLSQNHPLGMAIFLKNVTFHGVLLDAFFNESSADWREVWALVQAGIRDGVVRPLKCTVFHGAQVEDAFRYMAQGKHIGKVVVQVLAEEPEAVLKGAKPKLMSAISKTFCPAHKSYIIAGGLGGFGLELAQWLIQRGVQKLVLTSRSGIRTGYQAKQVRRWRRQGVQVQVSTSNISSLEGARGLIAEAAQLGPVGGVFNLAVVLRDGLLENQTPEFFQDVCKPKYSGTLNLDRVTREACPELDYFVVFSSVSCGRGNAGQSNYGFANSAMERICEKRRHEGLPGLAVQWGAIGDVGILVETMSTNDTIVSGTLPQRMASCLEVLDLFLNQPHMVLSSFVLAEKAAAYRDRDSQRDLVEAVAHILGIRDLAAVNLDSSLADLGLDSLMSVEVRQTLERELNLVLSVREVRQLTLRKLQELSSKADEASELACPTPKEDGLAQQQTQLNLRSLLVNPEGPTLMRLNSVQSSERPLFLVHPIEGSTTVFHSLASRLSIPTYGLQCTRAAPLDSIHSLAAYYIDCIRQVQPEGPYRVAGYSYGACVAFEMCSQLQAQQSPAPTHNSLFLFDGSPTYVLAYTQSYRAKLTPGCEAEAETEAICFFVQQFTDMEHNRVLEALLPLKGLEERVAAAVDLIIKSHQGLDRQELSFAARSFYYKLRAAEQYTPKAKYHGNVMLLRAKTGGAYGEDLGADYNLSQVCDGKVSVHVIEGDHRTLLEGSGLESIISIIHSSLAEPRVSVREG
With `CCN(CC)S(=O)(=O)c1ccc(-c2csc(Cc3cccc(I)c3)n2)cc1`, the IC50 – broadly, the concentration that gives 50% inhibition – is 8.69 µM.
The result for `CCN(CC)S(=O)(=O)c1ccc(-c2csc(C(c3ccccc3)c3ccccc3)n2)cc1` reads 5.28 µM.
As for `CS(=O)(=O)N1CCN(C(=O)Cc2ccc(S(=O)(=O)N3CCOCC3)s2)CC1`, the figure is > 30 µM (inactive).
On to `O=S(=O)(c1ccc(-c2csc(-c3ccc(F)cc3)n2)cc1)N1CCOCC1`, for which the IC50 is 0.291 µM.
The result for `CCN(CC)S(=O)(=O)c1ccc(-c2csc(-c3ccc(Cl)cc3)n2)cc1` reads 10 µM.
For `CCN(CC)S(=O)(=O)c1ccc(-c2csc(Cc3ccccc3OC)n2)cc1`, the IC50 is 5.38 µM.
The result for `CCN(CC)S(=O)(=O)c1ccc(-c2csc(Cc3ccc(F)cc3)n2)cc1` reads 0.918 µM.
The result for `CCN(CC)S(=O)(=O)c1ccc(-c2csc(Cc3cccc(F)c3)n2)cc1` reads 1.17 µM.
Regarding `CC(C)(C)c1ccc(CNC(=O)Cc2ccc(S(=O)(=O)N3CCOCC3)s2)cc1`, the IC50 is 14.3 µM.
The result for `Cc1cc(C)c(S(=O)(=O)N2CCN(C(=O)Cc3ccc(S(=O)(=O)N4CCOCC4)s3)CC2)c(C)c1` reads 33.2 µM.
`CCN(CC)S(=O)(=O)c1ccc(-c2csc(Cc3ccccc3F)n2)cc1`: the IC50 is 0.631 µM.
Consider `CCc1nc(-c2ccc(S(=O)(=O)N(CC)CC)cc2)cs1`, for which the IC50 was 51.7 µM.
The result for `O=C(Cc1ccc(S(=O)(=O)N2CCOCC2)s1)NCc1ccccc1` reads > 30 µM (inactive); that for `CCN(CC)S(=O)(=O)c1ccc(-c2csc(-c3ccc(F)cc3)n2)cc1`, 0.5 µM.
As for `CCN(CC)S(=O)(=O)c1ccc(-c2csc(-c3ccc(Br)cc3)n2)cc1`, the figure is 10 µM; as for `O=C(Cc1ccc(S(=O)(=O)N2CCOCC2)s1)N1CCN(S(=O)(=O)Cc2ccccc2)CC1`, > 30 µM (inactive).
The result for `CCN(CC)S(=O)(=O)c1ccc(-c2csc(-c3cccc(Br)c3)n2)cc1` reads 5.04 µM; that for `O=C(Cc1ccc(S(=O)(=O)N2CCOCC2)s1)N1CCN(S(=O)(=O)c2ccccc2)CC1`, 44.6 µM.
For `CCN(CC)S(=O)(=O)c1ccc(-c2csc(C(C)C)n2)cc1`, the IC50 was 4.2 µM.
For the molecule `CCN(CC)S(=O)(=O)c1ccc(-c2csc(C(C)(C)C)n2)cc1`, the IC50 was 2.6 µM.
The result for `CCN(CC)S(=O)(=O)c1ccc(-c2csc(Cc3cccc(C(F)(F)F)c3)n2)cc1` reads 3.26 µM.
As for `CC(C)c1nc(-c2ccc(S(=O)(=O)N3CCOCC3)cc2)cs1`, the figure is 5.8 µM; as for `CCN(CC)S(=O)(=O)c1ccc(-c2csc(-c3ccc(Br)cc3C)n2)cc1`, 17.2 µM.
As for `CC(C)S(=O)(=O)N1CCN(C(=O)Cc2ccc(S(=O)(=O)N3CCOCC3)s2)CC1`, the figure is > 30 µM (inactive).
For the molecule `O=C(Cc1ccc(S(=O)(=O)N2CCOCC2)s1)N1CCN(S(=O)(=O)c2ccc(F)cc2)CC1`, the IC50 result is “inactive”.
